From ChEMBL document CHEMBL1201862, “PubChem BioAssay data set” (2004)
Calls of active or inactive are those of the source.

Experiments:
[1] = target: Heat shock protein HSP 90-alpha (Homo sapiens, UniProt P07900); assay: Luminescence-based dose response biochemical high throughput screening assay for inhibitors of the Heat Shock Protein 90 (HSP90). [Related pubchem assays: 1831 (Summary AID.), 1846 (Confirmation screen.), 1789 (Primary screen.)]
[2] = NIH-3T3 fibroblast cytotoxicity, dose response, cytotoxicity control, cell-based, fluorescence, Alamar Blue, secondary assay (AID 2327); type: functional;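 note: NIH-3T3 mouse fibroblasts cultured with fluconazole at 8 µg/mL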
[3] = target: T1, Replicative DNA helicase DnaB (Mycobacterium tuberculosis, UniProt P9WMR3); assay: DnaB intein splicing inhibitors, dose response, biochemical, cell-free fluorescence (AID 449749); type: functional
T1 sequence (P9WMR3 whole entry): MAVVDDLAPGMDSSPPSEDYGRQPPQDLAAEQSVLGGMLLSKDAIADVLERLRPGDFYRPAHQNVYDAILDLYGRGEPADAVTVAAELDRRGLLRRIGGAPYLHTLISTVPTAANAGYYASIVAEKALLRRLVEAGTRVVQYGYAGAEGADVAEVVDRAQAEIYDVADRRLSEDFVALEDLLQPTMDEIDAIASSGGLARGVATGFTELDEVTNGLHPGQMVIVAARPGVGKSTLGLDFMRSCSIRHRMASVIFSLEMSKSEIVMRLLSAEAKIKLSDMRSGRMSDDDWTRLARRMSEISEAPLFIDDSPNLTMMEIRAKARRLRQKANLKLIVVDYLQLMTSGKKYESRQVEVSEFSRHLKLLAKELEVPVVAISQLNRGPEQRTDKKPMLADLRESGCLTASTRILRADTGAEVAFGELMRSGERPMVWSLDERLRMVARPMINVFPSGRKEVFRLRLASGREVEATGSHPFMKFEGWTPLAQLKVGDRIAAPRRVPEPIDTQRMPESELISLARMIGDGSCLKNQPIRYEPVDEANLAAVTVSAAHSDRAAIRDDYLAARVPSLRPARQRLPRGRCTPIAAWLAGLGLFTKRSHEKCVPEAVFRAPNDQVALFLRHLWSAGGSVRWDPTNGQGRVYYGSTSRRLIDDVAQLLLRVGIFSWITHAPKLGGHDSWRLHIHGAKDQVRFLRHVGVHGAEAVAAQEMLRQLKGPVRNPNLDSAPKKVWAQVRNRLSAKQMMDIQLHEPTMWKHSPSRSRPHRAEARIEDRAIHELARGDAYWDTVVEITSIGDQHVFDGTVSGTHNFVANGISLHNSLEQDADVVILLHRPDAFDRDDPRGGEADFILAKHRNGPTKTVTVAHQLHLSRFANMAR

[4] = fluconazole-exposed Candida albicans growth modulators – fluorescence, retest, confirmation (AID 2467); type: functional, cell-based
[5] = target: C-C chemokine receptor type 6 (Homo sapiens, UniProt P51684); assay: antagonism of CCR6 beta-arrestin recruitment – cell-based, luminescent beta-arrestin readout, dose response (AID 504728); type: functional
[6] = Trypanosoma cruzi growth suppression in host cells – NIH3T3 host cells, beta-gal luminescence, confirmation (AID 2044); type: functional, cell-based;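 note: intracellular parasites grown in NIH/3T3 mouse fibroblasts as host cells; luminescent beta-galactosidase reporter signal from transgenic T. cruzi replicating inside host cells; inhibitors lower the luminescence signal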
Beta-galactosidase = Beta-galactosidase (Escherichia coli, UniProt Q8VNN2); assay: detection-enzyme interference by beta-gal modulators – biochemical, E. coli enzyme, set 3, artefact control for CCR6 antagonist project, dose response (AID 504712); type: functional
Hexokinase HKDC1 = target: T2, Hexokinase HKDC1 (Homo sapiens, UniProt Q2TB90); assay: inhibition of HKDC1 glucose phosphorylation – biochemical, W721R variant, dose response (AID 504729); type: functional
T2 sequence (Q2TB90 whole entry): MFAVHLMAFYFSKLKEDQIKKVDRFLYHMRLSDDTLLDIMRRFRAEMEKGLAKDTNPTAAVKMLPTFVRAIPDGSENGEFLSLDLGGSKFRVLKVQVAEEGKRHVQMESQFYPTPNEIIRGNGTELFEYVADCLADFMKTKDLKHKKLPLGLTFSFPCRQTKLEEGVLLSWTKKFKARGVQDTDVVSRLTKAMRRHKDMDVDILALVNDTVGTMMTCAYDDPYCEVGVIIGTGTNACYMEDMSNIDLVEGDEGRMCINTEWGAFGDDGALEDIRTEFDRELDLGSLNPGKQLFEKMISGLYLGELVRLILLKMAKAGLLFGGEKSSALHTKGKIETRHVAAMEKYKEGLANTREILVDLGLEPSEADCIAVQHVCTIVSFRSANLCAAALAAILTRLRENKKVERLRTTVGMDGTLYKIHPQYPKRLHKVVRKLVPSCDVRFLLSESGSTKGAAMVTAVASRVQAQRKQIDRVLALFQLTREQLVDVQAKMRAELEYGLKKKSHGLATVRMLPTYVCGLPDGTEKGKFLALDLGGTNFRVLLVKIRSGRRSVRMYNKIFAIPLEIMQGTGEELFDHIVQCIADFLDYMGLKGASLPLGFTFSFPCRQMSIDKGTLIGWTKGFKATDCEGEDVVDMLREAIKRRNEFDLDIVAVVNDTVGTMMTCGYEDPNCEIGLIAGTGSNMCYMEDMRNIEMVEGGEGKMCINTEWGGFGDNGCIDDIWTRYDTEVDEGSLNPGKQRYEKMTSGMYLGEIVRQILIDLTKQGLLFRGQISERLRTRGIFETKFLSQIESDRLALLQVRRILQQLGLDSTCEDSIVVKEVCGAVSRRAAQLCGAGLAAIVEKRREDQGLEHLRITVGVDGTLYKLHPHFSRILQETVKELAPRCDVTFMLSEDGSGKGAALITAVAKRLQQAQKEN

C-C chemokine receptor type 6, sequence (P51684 whole entry): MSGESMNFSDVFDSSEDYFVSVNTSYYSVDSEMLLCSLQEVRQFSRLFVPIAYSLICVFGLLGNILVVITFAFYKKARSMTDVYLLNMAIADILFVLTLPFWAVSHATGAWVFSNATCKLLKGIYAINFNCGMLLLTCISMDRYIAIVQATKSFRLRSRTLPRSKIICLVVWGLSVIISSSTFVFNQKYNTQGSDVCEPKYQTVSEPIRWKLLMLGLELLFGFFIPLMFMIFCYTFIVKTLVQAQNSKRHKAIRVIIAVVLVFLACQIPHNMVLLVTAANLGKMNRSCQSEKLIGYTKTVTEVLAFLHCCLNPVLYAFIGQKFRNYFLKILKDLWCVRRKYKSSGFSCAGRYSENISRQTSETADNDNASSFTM
Beta-galactosidase, sequence (Q8VNN2 whole entry): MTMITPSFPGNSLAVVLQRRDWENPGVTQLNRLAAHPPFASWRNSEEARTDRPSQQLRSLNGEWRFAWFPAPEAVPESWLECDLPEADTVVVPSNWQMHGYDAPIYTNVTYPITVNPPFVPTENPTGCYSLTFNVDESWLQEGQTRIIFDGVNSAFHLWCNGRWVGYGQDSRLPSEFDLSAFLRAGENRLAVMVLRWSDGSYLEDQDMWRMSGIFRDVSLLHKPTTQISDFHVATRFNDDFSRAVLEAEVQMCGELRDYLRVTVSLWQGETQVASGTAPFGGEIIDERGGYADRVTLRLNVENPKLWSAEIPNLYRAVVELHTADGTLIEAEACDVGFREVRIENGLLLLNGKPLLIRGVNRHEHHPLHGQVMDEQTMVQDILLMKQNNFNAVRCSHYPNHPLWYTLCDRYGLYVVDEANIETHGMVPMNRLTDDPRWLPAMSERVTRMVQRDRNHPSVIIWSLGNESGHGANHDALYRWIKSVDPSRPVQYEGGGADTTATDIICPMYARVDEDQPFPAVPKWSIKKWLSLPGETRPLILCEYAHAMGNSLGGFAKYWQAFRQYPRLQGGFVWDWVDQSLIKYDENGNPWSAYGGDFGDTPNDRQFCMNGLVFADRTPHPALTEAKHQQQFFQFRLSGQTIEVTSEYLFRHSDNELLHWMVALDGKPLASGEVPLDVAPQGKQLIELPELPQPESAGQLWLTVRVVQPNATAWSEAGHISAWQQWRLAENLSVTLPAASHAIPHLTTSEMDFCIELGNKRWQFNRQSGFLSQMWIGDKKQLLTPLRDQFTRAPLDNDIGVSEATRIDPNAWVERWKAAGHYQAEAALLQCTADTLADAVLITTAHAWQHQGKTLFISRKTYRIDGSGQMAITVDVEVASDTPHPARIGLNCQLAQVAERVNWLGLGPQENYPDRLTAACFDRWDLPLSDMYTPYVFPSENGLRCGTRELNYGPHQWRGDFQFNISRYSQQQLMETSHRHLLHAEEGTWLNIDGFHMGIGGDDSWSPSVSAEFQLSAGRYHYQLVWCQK

O=C1C(Nc2ccccc2)=C/C(=N/S(=O)(=O)c2cccs2)c2ccccc21
IC50 [1]: 348 nM (active)
EC50 [2]: 2660 nM (inconclusive)
AC50 [3]: 187 nM (active)
EC50 [4]: 1350 nM (active)
IC50 [5]: 34800 nM (inactive)
EC50 [6]: 1140 nM (active)
IC50 (Beta-galactosidase): > 66600 nM (inactive)
IC50 (Hexokinase HKDC1): 4880 nM (active)
